Test results reported in ChEMBL document CHEMBL1201861, “Genomics of Drug Sensitity in Cancer screening data, Wellcome Trust Sanger Institute”.

What was measured:
Experiment in all cases: cells
Assay type in all cases: functional, cell-based
Settings in all cases: Homo sapiens
KOSC-2 = system: KOSC-2;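 further: growth inhibition of KOSC-2 cells, read out by a cell viability assay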
Description: SANGER: Inhibition of human KOSC-2 cell growth in a cell viability assay.

T84 = system: T84;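 further: growth inhibition measured with a cell viability readout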
Description: SANGER: Inhibition of human T84 cell growth in a cell viability assay.

BCPAP = system: BCPAP;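 further: growth inhibition of BCPAP cells, read out in a cell viability assay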
Description: SANGER: Inhibition of human BCPAP cell growth in a cell viability assay.

UACC-62 = system: UACC-62;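 further: growth inhibition of human UACC-62 cells, read out by a cell viability assay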
Description: SANGER: Inhibition of human UACC-62 cell growth in a cell viability assay.

ABC-1 = system: ABC-1;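 further: growth inhibition of human ABC-1 cells, read out by a cell viability assay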
Description: SANGER: Inhibition of human ABC-1 cell growth in a cell viability assay.

769-P = system: 769-P
Description: SANGER: Inhibition of human 769-P cell growth in a cell viability assay.

NCI-H1792 = system: NCI-H1792;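 further: growth inhibition of human NCI-H1792 cells, read out as cell viability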
Description: SANGER: Inhibition of human NCI-H1792 cell growth in a cell viability assay.

SCC-9 = system: SCC-9;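 further: Read-out is a cell viability assay, with values giving inhibition of cell growth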
Description: SANGER: Inhibition of human SCC-9 cell growth in a cell viability assay.

Calu-3 = system: Calu-3;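 further: growth inhibition of human Calu-3 cells, determined with a cell viability assay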
Description: SANGER: Inhibition of human Calu-3 cell growth in a cell viability assay.

OE33 = system: OE33;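 further: growth inhibition of human OE33 cells, measured by a cell viability assay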
Description: SANGER: Inhibition of human OE33 cell growth in a cell viability assay.

A-375 = system: A-375;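 further: growth inhibition of A375 cells, read out with a cell viability assay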
Description: SANGER: Inhibition of human A375 cell growth in a cell viability assay.

KYSE-150 cell line = system: KYSE-150 cell line;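 further: growth inhibition of human KYSE-150 cells, read out with a cell viability assay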
Description: SANGER: Inhibition of human KYSE-150 cell growth in a cell viability assay.

NCI-H358 = system: NCI-H358;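 further: growth inhibition of NCI-H358 human cells, read out with a cell viability assay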
Description: SANGER: Inhibition of human NCI-H358 cell growth in a cell viability assay.

5637 = system: 5637
Description: SANGER: Inhibition of human 5637 cell growth in a cell viability assay.

A2780 = system: A2780;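 further: growth inhibition of A2780 cells, read out with a cell viability assay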
Description: SANGER: Inhibition of human A2780 cell growth in a cell viability assay.

NCI-H1793 = system: NCI-H1793;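 further: cell growth inhibition, read out by a cell viability assay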
Description: SANGER: Inhibition of human NCI-H1793 cell growth in a cell viability assay.

HCC1419 = system: HCC1419;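 further: growth inhibition of human HCC1419 cells, read out as cell viability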
Description: SANGER: Inhibition of human HCC1419 cell growth in a cell viability assay.

A204 = system: A204;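 further: growth inhibition of human A204 cells, read out with a cell viability assay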
Description: SANGER: Inhibition of human A204 cell growth in a cell viability assay.

OVCAR-8 = system: OVCAR-8;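 further: growth inhibition of human OVCAR-8 cells, read out by a cell viability assay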
Description: SANGER: Inhibition of human OVCAR-8 cell growth in a cell viability assay.

NCI-H661 = system: NCI-H661;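 further: cell viability assay read-out, IC50 being the concentration that inhibits growth of the cells by half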
Description: SANGER: Inhibition of human NCI-H661 cell growth in a cell viability assay.

SK-N-AS = system: SK-N-AS;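 further: growth inhibition of human SK-N-AS cells, measured with a cell viability assay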
Description: SANGER: Inhibition of human SK-N-AS cell growth in a cell viability assay.

HMV-2 cell line = system: HMV-2 cell line;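 further: growth inhibition of HMV-II cells, read out with a cell viability assay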
Description: SANGER: Inhibition of human HMV-II cell growth in a cell viability assay.

SAS = system: SAS;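 further: growth inhibition of SAS cells, read out with a cell viability assay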
Description: SANGER: Inhibition of human SAS cell growth in a cell viability assay.

J82 = system: J82;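 further: growth inhibition of J82 cells, read out with a cell viability assay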
Description: SANGER: Inhibition of human J82 cell growth in a cell viability assay.

NCI-H460 = system: NCI-H460;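 further: cell viability assay scoring growth inhibition of human NCI-H460 cells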
Description: SANGER: Inhibition of human NCI-H460 cell growth in a cell viability assay.

VM-CUB-1 = system: VM-CUB-1;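 further: cell viability assay measuring growth inhibition of the human VM-CUB-1 cell line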
Description: SANGER: Inhibition of human VM-CUB-1 cell growth in a cell viability assay.

SW837 = system: SW837;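 further: growth inhibition of SW837 cells, determined with a cell viability assay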
Description: SANGER: Inhibition of human SW837 cell growth in a cell viability assay.

SW1990 = system: SW1990;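 further: cell growth inhibition determined with a viability assay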
Description: SANGER: Inhibition of human SW1990 cell growth in a cell viability assay.

NCI-H1651 = system: NCI-H1651;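 further: Read-out is a cell viability assay, with IC50 expressing inhibition of NCI-H1651 cell growth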
Description: SANGER: Inhibition of human NCI-H1651 cell growth in a cell viability assay.

HCT-116 = system: HCT-116
Description: SANGER: Inhibition of human HCT-116 cell growth in a cell viability assay.

HO-1-N-1 = system: HO-1-N-1;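 further: growth inhibition of human HO-1-N-1 cells, read out with a cell viability assay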
Description: SANGER: Inhibition of human HO-1-N-1 cell growth in a cell viability assay.

BFTC-905 = system: BFTC-905
Description: SANGER: Inhibition of human BFTC-905 cell growth in a cell viability assay.

CAL-27 = system: CAL-27;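 further: Viability-based readout, IC50 reflecting inhibition of CAL-27 cell growth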
Description: SANGER: Inhibition of human CAL-27 cell growth in a cell viability assay.

RVH-421 = system: RVH-421
Description: SANGER: Inhibition of human RVH-421 cell growth in a cell viability assay.

MHH-ES-1 = system: MHH-ES-1;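 further: cell growth inhibition measured by a cell viability assay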
Description: SANGER: Inhibition of human MHH-ES-1 cell growth in a cell viability assay.

LK-2 = system: LK-2;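 further: growth inhibition of LK-2 cells, read out with a viability assay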
Description: SANGER: Inhibition of human LK-2 cell growth in a cell viability assay.

NCI-H28 = system: NCI-H28;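 further: growth inhibition of human NCI-H28 cells, read out as cell viability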
Description: SANGER: Inhibition of human NCI-H28 cell growth in a cell viability assay.

HCC1954 = system: HCC1954;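 further: growth inhibition of human HCC1954 cells, read out with a cell viability assay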
Description: SANGER: Inhibition of human HCC1954 cell growth in a cell viability assay.

HOS = system: HOS;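 further: growth inhibition of human HOS cells, read out with a cell viability assay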
Description: SANGER: Inhibition of human HOS cell growth in a cell viability assay.

NCI-H522 = system: NCI-H522;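 further: cell viability assay measuring growth inhibition of human NCI-H522 cells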
Description: SANGER: Inhibition of human NCI-H522 cell growth in a cell viability assay.

TCC-SUP = system: TCC-SUP;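 further: growth inhibition of TCC-SUP cells, read out with a cell viability assay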
Description: SANGER: Inhibition of human TCCSUP cell growth in a cell viability assay.

KYSE-520 cell line = system: KYSE-520 cell line;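 further: growth inhibition of human KYSE-520 cells, read out with a viability assay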
Description: SANGER: Inhibition of human KYSE-520 cell growth in a cell viability assay.

NCI-H2087 = system: NCI-H2087;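 further: growth inhibition determined with a cell viability readout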
Description: SANGER: Inhibition of human NCI-H2087 cell growth in a cell viability assay.

Capan-2 = system: Capan-2;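 further: Capan-2 cell growth inhibition, read out with a viability assay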
Description: SANGER: Inhibition of human Capan-2 cell growth in a cell viability assay.

NCI-H292 = system: NCI-H292;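 further: growth inhibition of NCI-H292 cells, read out with a cell viability assay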
Description: SANGER: Inhibition of human NCI-H292 cell growth in a cell viability assay.

SN12C = system: SN12C;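 further: growth inhibition of human SN12C cells, measured by a cell viability assay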
Description: SANGER: Inhibition of human SN12C cell growth in a cell viability assay.

Measured: IC50

O=C1NC(=O)c2c1c(-c1ccccc1Cl)cc1[nH]c3ccc(O)cc3c21
1.02 µM: 769-P
1.39 µM: HO-1-N-1
1.52 µM: A-375
1.62 µM: BFTC-905
1.81 µM: SK-N-AS
0.454 µM: NCI-H292
1.18 µM: OVCAR-8 | SW1990
> 2 µM: all other assays above

O=C(NCCCNc1nc(Nc2cccc(NC(=O)N3CCCC3)c2)ncc1I)c1cccs1 [BX-795]
1.57 µM: HOS
2.44 µM: NCI-H460
1.08 µM: BFTC-905
4.81 µM: ABC-1
2.04 µM: VM-CUB-1
1.31 µM: A-375
1.97 µM: HO-1-N-1
1.15 µM: A204
2.73 µM: KYSE-150 cell line | MHH-ES-1
2.23 µM: BCPAP
4.99 µM: HCT-116
3.07 µM: KOSC-2
2.58 µM: NCI-H292
2.85 µM: NCI-H28
> 5 µM: all other assays above

Cc1ccc(-n2nc(C(C)(C)C)cc2NC(=O)Nc2ccc(OCCN3CCOCC3)c3ccccc23)cc1 [DORAMAPIMOD]
7.54 µM: NCI-H358
> 10 µM: all other assays above
